Data published in patent US20170211147A1, “METHOD OF PREDICTING REACTION TO SORAFENIB TREATMENT USING GENE POLYMORPHISM” (National Cancer Center, priority 2014, published 2017).

Tests used:
liver cancer patients = assay: Progression-free survival with sorafenib treatment by SLC15A2 genotype (Kaplan-Meier, Cox proportional hazard model); type: in vivo, human
Description: Five coding variants were identified in the SLC15A2 gene by NGS analysis, and three non-synonymous SNVs (L350F, P409S and R509K), which may cause a functional alternation in gene product, were selected so as to analyze genotypes for 233 liver cancer patients that had received sorafenib treatment over 6 weeks.
Also, to confirm SNPs to be analyzed, 249 patients treated with sorafenib were genotyped using the MassARRAY system (Sequenom, San Diego, Calif., USA), thereby obtaining three SNP genotypes (C/C, C/T and T/T).
Specifically, the association between generic polymorphisms and risk for progression was assessed by a Cox proportional hazard model with adjustment by stage of hepatocellular carcinoma (HCC). Also, analyses of data obtained were performed using STATA version 10.1 (Stata Corp, College Station, Tex., USA).

Hep3B cell line = assay: MTT assay, cell viability after sorafenib treatment; type: cell-based, human; settings: C/C genotype, sorafenib for 48 hours
Method: (§1) First, human hepatocellular carcinoma (HCC)-derived cell lines such as Hep3B, SNU182 and PLC/PRFS cell lines were purchased from Korean Cell Line Bank (KCLB, Seoul, Republic of Korea), and genomic DNA was extracted from the cell lines derived from human HCC using a MagAttract DNA mini M48 kit (Qiagen) according to a user manual of the kit.
(§2) Afterward, to confirm the sorafenib response in each cell line according to the SLC15A2 gene nucleotide polymorphism, each cell line was cultured in RPMI-1640 (Invitrogen, Carlsbad, Calif., USA) with 10%(v/v) fetal bovine serum (FBS) and 100 U/ml penicillin-streptomycin at 37° C. in 5% CO2. Next, for the MTT assay, cells obtained by the above-described culture were plated on 96-well plates at a density of 1×10^4 cells/well and treated with sorafenib for 48 hours in the RPMI-1640 used above.
(§3) Then, the number of viable cells was measured by performing the MTT assay (Promega Fitchburg, Wis., USA) according to a user manual of the MTT assay.

PLC/PRFS cell line = assay: as above; type: cell-based, human; settings: C/T genotype
Method: as §1, §2, §3

SNU182 cell line = assay: as above; type: cell-based, human; settings: SNU182, T/T genotype
Method: as §1, §2, §3

CNC(=O)c1cc(Oc2ccc(NC(=O)Nc3ccc(Cl)c(C(F)(F)F)c3)cc2)ccn1 [sorafenib]
progression-free survival (accumulative hazard ratio) (liver cancer patients): 2.46
response to sorafenib treatment (liver cancer patients; subjects with C/T or T/T genotype compared with C/C genotype): stronger response
proliferation (Hep3B cell line): dose-dependently inhibited
response to sorafenib compared with Hep3B cell line (C/C genotype) (PLC/PRFS cell line; 48 hours): stronger response
proliferation (PLC/PRFS cell line; sorafenib for 48 hours): dose-dependently inhibited
response to sorafenib compared with Hep3B cell line (C/C genotype) (SNU182 cell line; 48 hours): stronger response
proliferation (SNU182 cell line; sorafenib for 48 hours): dose-dependently inhibited
